US9494524B2, “Assay for analytes based on aggregation” (priority 2010, dated 2016)
Like-named read-outs stand apart in the source and are kept apart here.

Tests used:
[1] = test system: Phospholipase A2 from Naja mossambica mossambica; type: biochemical; conditions: in the presence of PLA2 and EDTA, room temperature (FIG. 3A)
Procedure: (§1) Methodology: Mixed solutions of 20 nm JR2EC-functionalised gold nanoparticles and 100 nm JR2KC2-loaded liposomes were prepared in accordance with Example 1. Absorption spectra were measured for the solutions under various solution conditions, as discussed below.
(§2) Methodology: JR2KC2 loaded liposomes, carboxyfluorescein (CF)-loaded liposomes and JR2EC-functionalised gold nanoparticles were prepared as described in Example 1. A mixture of PLA2 and chlorpromazine was added to the suspensions of liposomes. The assay response was recorded spectroscopically (in the UV-visible range) after incubating various concentrations of chlorpromazine with PLA2 (7 nM), functionalized gold nanoparticles (0.1 nM) and liposomes (1.4 nM) for 10 minutes at 37° C. For JR2KC2-loaded liposomes, the assay response was measured spectroscopically (in the UV-visible range) by recording spectra in the range 400-800 nm with 2 minute intervals using a Perkin Elmer Lambda 25 Spectrophotometer, and then extracting Δλmax.
(§3) This value was obtained by fitting the data to the monophasic Hill equation: […]

[2] = target: T1, Phospholipase A2 from Naja mossambica mossambica; assay: traditional carboxyfluorescein (CF)-based fluorescence assay with CF-loaded liposomes; type: biochemical; conditions: PLA2 7 nM, 37° C.
T1 construct: IC50; other: CF-loaded liposomes, PLA2 7 nM, 37° C; other: PLA2 7 nM, gold nanoparticles 0.1 nM, liposomes 1.4 nM, 10 minutes at 37° C., Hill fit of Δλmax; lag time
Procedure: Carboxyfluorescein-loaded liposomes were prepared similarly, except that the rehydration solution was 50 mM CF, 20 mM phosphate, adjusted to pH 7 with NaOH. The untrapped dye was removed by filtration on a Sephadex G-25 column with PBS as eluent. The total lipid concentration in all samples was determined using the Stewart assay.^21
Methodology: Liposomes containing 50 mM of carboxyfluorescein were prepared as described in Example 1. The final lipid concentration in the sample was 30 μg/ml. The liposomes were incubated with solutions of PLA2 at a variety of concentrations for 30 minutes. Experiments were performed on a Perkin Elmer fluorimeter with an excitation wavelength of 490 nm and an emission wavelength of 520 nm. […]
as §2, with “A mixture of PLA2 and chlorpromazine was added to the suspensions of liposomes.” left out

[3] = test system: T1, Phospholipase A2 from Naja mossambica mossambica; type: biochemical
Procedure: as §1, §2, §3

[4] = test system: PLA2; conditions: literature values; read-out: IC50 previously reported; cited from earlier work

SMILES	effect on PLA2-induced nanoparticle aggregation [1]	IC50 [2] [µM]	lag time ([3]; 10 μM inhibitor, 7 nM PLA2, about 5 minutes without the inhibitor)	concentration of active non-inhibited PLA2 relative to actual PLA2 concentration ([3]; 10 μM inhibitor, read from lag time (FIG. 12b))	IC50 ([3]; PLA2 7 nM, gold nanoparticles 0.1 nM, liposomes 1.4 nM, 10 minutes at 37° C., Hill fit of Δλmax) [µM]	IC50 [4] [µM]
O=C(O)CN(CCN(CC(=O)O)CC(=O)O)CC(=O)O [EDTA, ethylenediaminetetraacetic acid]	prevented aggregation	–	–	–	–	–
CN(C)CCCN1c2ccccc2Sc2ccc(Cl)cc21 [chlorpromazine]	–	10	approximately 15 minutes	about half	6.5	10 to 100
